Experimental data from PMC4774911, “Biochemical Screening of Five Protein Kinases from Plasmodium falciparum against 14,000 Cell-Active Compounds” (PLoS ONE, 2016).
pIC50: −log10 of the molar value. “And” between values parts separate entries of the source, which are not always exact repeats. Identical values can stand only once.

Assays:
Test in all cases: biochemical
BRAF = BRAF (Homo sapiens, UniProt P15056)
CAMKK2 = CAMKK2 (Homo sapiens, UniProt Q96RR4)
DDR1 = DDR1 (Homo sapiens, UniProt Q08345)
Chain of DDR1 (Q08345 whole entry): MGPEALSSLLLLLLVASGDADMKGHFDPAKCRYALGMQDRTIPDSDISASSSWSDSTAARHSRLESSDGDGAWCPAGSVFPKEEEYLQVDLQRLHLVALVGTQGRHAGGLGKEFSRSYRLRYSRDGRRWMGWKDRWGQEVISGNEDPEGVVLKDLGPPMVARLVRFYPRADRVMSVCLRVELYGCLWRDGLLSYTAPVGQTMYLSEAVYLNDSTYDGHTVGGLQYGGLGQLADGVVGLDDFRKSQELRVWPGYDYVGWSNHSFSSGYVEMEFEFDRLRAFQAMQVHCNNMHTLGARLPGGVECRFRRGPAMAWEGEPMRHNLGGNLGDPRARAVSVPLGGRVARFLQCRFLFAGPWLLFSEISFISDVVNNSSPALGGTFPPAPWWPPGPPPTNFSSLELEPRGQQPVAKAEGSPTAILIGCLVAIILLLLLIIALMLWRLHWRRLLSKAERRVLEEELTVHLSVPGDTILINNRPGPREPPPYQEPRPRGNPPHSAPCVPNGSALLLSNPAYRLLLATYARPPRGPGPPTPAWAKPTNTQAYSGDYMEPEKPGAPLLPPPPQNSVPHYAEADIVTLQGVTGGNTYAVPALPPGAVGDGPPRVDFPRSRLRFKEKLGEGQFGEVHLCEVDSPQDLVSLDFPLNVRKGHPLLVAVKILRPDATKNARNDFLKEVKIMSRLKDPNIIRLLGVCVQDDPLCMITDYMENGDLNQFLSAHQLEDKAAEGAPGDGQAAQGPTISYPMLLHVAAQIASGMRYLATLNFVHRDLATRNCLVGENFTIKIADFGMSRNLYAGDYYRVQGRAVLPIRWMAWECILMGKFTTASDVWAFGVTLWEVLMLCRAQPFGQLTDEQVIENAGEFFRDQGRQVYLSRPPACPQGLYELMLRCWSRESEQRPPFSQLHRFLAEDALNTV

LYN = LYN (Homo sapiens, UniProt P07948)
Chain of LYN (P07948 whole entry): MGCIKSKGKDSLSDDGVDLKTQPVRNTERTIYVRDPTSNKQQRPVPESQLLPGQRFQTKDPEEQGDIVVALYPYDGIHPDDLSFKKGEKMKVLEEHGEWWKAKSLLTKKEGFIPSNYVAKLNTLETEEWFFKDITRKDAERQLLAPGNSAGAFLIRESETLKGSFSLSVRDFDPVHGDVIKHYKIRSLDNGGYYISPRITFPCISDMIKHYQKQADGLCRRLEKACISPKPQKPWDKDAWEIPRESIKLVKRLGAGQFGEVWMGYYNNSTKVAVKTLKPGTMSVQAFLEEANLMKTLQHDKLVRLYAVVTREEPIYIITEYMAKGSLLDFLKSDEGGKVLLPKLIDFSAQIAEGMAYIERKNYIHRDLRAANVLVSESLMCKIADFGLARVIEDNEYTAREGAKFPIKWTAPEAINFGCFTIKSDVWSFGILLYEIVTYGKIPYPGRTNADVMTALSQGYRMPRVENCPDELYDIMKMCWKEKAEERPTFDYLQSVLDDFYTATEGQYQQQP

MAP4K5 = MAP4K5 (Homo sapiens, UniProt Q9Y4K4)
MYLK3 = target: T1, MYLK3 (Homo sapiens, UniProt Q32MK0)
T1 sequence (Q32MK0 1-819): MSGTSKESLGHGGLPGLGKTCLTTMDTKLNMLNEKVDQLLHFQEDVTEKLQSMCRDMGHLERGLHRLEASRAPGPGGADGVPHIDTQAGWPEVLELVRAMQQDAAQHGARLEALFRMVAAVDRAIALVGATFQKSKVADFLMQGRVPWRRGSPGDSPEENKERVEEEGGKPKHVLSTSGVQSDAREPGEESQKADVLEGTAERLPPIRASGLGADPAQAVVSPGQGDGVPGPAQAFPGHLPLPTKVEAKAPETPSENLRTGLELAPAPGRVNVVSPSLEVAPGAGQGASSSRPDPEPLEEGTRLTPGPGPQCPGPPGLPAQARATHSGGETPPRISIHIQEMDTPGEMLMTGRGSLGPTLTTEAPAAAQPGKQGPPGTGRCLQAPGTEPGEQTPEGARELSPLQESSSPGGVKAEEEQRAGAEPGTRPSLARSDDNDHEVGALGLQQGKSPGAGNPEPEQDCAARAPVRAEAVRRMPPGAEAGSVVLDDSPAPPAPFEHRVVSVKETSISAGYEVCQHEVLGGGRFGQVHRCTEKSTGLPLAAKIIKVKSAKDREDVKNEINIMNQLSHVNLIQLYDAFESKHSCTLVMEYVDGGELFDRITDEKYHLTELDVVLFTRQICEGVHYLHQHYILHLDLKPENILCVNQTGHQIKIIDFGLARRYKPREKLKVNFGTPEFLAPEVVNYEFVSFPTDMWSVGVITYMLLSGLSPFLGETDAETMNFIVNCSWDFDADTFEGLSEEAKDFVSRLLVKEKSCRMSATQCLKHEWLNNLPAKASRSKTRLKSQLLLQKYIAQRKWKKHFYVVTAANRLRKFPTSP

SLK = SLK (Homo sapiens, UniProt Q9H2G2)
Chain of SLK (Q9H2G2 whole entry): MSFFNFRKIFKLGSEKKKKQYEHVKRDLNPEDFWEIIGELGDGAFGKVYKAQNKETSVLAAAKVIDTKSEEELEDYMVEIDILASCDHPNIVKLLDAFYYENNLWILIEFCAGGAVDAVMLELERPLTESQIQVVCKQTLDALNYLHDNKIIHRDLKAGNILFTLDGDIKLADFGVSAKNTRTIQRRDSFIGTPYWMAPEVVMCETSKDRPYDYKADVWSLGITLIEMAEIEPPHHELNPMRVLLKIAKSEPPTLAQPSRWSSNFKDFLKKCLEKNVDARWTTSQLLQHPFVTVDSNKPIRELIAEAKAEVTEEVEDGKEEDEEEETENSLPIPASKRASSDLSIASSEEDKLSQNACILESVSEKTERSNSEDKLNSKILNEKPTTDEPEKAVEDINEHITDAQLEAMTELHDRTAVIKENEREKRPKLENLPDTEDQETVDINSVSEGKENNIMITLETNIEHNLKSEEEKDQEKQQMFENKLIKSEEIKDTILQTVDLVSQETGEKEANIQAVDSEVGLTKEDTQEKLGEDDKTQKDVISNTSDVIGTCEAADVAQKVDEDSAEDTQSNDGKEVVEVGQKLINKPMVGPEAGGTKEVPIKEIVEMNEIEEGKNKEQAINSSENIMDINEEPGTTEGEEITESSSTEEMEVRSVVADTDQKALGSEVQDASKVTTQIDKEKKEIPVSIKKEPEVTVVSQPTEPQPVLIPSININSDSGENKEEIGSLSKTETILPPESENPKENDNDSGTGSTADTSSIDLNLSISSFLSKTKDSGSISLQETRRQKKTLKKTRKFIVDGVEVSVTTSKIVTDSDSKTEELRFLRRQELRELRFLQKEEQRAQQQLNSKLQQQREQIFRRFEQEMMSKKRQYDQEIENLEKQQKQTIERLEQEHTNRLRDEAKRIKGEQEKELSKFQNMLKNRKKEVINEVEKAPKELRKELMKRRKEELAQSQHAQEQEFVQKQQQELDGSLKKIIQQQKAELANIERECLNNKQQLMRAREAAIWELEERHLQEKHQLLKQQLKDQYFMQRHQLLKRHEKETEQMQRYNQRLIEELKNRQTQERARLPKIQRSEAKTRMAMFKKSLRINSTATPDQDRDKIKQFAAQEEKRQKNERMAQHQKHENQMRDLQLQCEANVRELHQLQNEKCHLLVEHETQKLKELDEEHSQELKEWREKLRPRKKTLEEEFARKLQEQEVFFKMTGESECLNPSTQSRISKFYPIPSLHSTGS

SRC = SRC (Homo sapiens, UniProt P12931)
Chain of SRC (P12931 whole entry): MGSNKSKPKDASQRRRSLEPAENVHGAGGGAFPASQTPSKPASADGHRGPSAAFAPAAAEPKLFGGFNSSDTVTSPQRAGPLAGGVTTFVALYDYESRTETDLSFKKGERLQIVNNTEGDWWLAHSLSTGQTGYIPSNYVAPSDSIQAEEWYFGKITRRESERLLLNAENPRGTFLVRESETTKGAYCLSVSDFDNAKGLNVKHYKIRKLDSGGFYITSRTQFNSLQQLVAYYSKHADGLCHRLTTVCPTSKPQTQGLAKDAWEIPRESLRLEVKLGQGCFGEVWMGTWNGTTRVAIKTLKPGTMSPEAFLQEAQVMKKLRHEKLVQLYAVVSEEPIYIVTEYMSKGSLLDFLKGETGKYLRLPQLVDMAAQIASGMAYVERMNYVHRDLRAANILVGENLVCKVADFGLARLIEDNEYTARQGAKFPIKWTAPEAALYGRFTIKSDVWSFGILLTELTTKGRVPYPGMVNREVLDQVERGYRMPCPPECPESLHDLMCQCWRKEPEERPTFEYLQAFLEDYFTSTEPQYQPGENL

TBK1 = target: T2, TBK1 (Homo sapiens, UniProt Q9UHD2)
T2 sequence (Q9UHD2 1-729): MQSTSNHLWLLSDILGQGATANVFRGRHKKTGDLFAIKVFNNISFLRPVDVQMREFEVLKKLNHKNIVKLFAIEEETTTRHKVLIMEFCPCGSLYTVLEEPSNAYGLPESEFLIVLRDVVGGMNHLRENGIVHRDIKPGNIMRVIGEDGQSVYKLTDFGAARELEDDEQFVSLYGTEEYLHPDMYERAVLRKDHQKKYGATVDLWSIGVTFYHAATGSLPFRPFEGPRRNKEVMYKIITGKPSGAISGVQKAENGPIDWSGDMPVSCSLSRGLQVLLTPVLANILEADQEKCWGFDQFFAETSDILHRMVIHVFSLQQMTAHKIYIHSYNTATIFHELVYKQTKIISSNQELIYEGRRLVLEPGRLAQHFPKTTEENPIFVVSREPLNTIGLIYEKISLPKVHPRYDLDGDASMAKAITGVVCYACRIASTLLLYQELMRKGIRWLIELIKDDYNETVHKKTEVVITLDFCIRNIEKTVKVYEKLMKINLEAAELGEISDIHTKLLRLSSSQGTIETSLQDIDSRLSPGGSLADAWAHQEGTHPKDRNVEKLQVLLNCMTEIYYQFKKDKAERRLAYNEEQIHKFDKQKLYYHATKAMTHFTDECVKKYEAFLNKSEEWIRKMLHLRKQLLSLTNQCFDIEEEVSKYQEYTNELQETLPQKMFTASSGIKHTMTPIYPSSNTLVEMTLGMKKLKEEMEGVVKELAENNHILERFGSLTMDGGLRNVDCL

TEC = target: T3, TEC (Homo sapiens, UniProt P42680)
T3 sequence (P42680 1-631): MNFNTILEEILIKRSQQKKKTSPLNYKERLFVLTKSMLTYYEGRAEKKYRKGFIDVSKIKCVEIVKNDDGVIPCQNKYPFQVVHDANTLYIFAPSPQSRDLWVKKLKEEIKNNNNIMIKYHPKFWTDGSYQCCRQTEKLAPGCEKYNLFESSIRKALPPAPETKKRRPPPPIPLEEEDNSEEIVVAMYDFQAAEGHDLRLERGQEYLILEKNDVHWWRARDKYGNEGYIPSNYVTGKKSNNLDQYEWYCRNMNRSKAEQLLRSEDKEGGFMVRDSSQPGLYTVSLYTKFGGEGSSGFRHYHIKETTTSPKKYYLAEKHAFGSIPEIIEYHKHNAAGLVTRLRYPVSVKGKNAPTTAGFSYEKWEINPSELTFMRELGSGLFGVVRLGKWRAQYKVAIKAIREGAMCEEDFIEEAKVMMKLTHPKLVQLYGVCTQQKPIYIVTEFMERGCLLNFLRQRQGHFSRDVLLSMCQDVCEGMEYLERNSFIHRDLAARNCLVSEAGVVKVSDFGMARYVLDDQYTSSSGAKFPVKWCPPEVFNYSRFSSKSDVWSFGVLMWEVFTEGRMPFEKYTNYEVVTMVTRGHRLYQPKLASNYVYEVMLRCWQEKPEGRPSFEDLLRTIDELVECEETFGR

YES1 = YES1 (Homo sapiens, UniProt P07947)

Chain of CAMKK2 (Q96RR4 whole entry): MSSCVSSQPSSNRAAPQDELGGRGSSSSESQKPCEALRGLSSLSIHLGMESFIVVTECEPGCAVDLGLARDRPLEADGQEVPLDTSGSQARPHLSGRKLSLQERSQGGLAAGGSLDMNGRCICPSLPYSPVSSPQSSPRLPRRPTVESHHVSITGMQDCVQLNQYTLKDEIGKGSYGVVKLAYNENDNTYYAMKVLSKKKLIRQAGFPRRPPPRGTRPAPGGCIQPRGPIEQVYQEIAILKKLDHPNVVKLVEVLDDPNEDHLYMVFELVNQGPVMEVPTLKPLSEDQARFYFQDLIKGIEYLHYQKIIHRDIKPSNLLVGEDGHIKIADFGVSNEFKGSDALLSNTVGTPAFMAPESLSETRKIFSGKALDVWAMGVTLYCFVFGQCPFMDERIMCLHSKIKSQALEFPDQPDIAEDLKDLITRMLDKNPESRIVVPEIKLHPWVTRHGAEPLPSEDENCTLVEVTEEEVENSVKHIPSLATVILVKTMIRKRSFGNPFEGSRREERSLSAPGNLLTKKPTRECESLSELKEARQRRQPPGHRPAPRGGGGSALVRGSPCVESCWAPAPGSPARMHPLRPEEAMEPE
Chain of BRAF (P15056 whole entry): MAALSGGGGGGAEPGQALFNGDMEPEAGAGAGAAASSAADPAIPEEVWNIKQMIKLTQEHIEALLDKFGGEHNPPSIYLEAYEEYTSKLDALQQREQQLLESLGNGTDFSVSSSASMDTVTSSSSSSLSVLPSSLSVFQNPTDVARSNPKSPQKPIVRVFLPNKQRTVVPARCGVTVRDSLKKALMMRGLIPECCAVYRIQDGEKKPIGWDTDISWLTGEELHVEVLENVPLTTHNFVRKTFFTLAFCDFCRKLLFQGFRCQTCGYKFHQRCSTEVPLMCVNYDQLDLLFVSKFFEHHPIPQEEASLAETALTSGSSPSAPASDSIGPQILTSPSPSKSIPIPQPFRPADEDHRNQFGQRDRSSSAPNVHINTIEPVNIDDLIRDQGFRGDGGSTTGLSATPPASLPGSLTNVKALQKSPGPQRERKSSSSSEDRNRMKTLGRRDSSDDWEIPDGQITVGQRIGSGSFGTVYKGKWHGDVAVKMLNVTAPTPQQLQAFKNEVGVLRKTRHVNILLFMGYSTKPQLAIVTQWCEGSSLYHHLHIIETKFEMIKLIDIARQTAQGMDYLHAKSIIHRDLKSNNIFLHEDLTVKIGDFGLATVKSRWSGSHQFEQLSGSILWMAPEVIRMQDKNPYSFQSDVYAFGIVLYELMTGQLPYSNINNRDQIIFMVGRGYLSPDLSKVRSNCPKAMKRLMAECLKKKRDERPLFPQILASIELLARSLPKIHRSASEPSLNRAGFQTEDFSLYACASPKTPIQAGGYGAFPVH

SMILES	pIC50 (BRAF)	pIC50 (CAMKK2)	pIC50 (DDR1)	pIC50 (LYN)	pIC50 (MAP4K5)	pIC50 (MYLK3)	pIC50 (SLK)	pIC50 (SRC)	pIC50 (TBK1)	pIC50 (TEC)	pIC50 (YES1)
CN(C)CC(O)COc1ccc(Nc2ncc([N+](=O)[O-])c(Nc3ccccc3O)n2)cc1.O=C(O)C(F)(F)F (stereo not drawn) [TCMDC-141399]	< 4.70	5.28 and 5.25	4.96	< 4.70	5.37	5.68 and 5.74	6.05 and 6.00	< 4.70	< 4.70	< 4.70	< 4.70
Cl.NCC1(c2nc(-c3ccc(Cl)c(O)c3)c(-c3ccncc3)[nH]2)CCCCC1 [TCMDC-141154]	5.96 and 6.05	< 4.70	5.74	5.89	5.30	< 4.70	≥ 7.49	6.54	< 4.70	< 4.70	5.36 and 5.11
CN1CCN(c2ccc(Nc3ncc(C#N)c(Nc4ccccc4C(N)=O)n3)cc2)CC1.Cl [TCMDC-134116]	5.70	6.44 and 6.42	6.22 and 6.31	6.55 and 6.46	6.55 and 6.54	7.17 and 7.03	7.32 and 7.24	6.32 and 6.39	6.28 and 6.29	6.34 and 6.31	6.92 and 6.82
